Results from patent US9834823B2, “Primers, assays and methods for detecting an E. coli subtype” (priority 2012, dated 2017).

Assays:
Assay type in all cases: cell-based
[1] = system: Escherichia coli clinical isolates from U.S. veterans; test: Susceptibility testing (broth microdilution or disk diffusion) at VAMCs with population back-calculations; details: for Prevalence of resistance, H30 ST131: H30 ST131 subclone isolates (H30 subclone vs. others); for Prevalence of resistance, ST131: ST131 isolates (ST131 vs. others); for Prevalence of resistance, Total (%): all isolates; for Estimated fraction due to ST131: fraction of resistance phenotype due to ST131; for Overall prevalence in population, %: resistance phenotype, back-calculated with 29% FQ resistance
[2] = system: Escherichia coli clinical isolates (ESBL-positive and ESBL-negative; ST131 subclones); test: Broth microdilution antimicrobial susceptibility, NorthShore ESBL case-control isolates; details: for No. of resistant isolates (column %), H30-Rx (N = 47): H30-Rx subclone isolates (N = 47) within the H30 ST131 subclone; for No. of resistant isolates (column %), H30, non-Rx (N = 15): H30 non-Rx isolates (N = 15) within the H30 ST131 subclone; for No. of resistant isolates (column %), H30 (N = 62): H30 subclone isolates (N = 62) among 71 E. coli ST131 isolates; for No. of resistant isolates (column %), Non-H30 (N = 9): non-H30 isolates (N = 9) among 71 E. coli ST131 isolates
Text: As reported elsewhere, the 267 E. coli study isolates were collected between 2007 and 2010 as part of a prospective case-control study conducted at NorthShore University HealthSystem (Banerjee, R J et al. “Predictors and molecular epidemiology of community-onset extended-spectrum beta-lactamase (ESBL) Escherichia coli infection in a Midwestern community,” 2013 Infect Control Hosp Epidemiol; in press). Cases were defined as adults with ESBL-producing E. coli cultured from any specimen type. Controls were defined as the 1 or 2 patients with non-ESBL E. coli isolates identified just subsequent to the case isolate, and with the same specimen type and location of collection. Isolates obtained in the outpatient setting or within 48 hours of hospital admission were considered causes of community-associated infection. Further study details are as described (Banerjee, R J et al. “Predictors and molecular epidemiology of community-onset extended-spectrum beta-lactamase (ESBL) Escherichia coli infection in a Midwestern community,” 2013 Infect Control Hosp Epidemiol; in press).
The resistance score was the total number of agents to which an isolate was resistant. This study was approved by the NorthShore and VA Medical Center institutional review boards.

[3] = system: extraintestinal Escherichia coli isolates; test: Antimicrobial susceptibility testing (CLSI breakpoints), Olmsted County isolates; details: for Resistance prevalence among H30 ST131: H30 ST131 subclone, N = 70; for Resistance prevalence among non-H30 ST131: non-H30 ST131, N = 10
[4] = all non-H30 isolates (H30 subclone vs. others)
[5] = all non-ST131 isolates (ST131 vs. others)
[6] = resistance prevalence among H30 ST131 subclone isolates relative to all other isolates
[7] = resistance prevalence among ST131 isolates relative to all other isolates
[8] = ESBL-negative isolates, All N = 167
[9] = ESBL-negative isolates, Non-ST131 N = 145
[10] = ESBL-negative isolates, ST131 N = 22
[11] = ESBL-positive isolates, All N = 100
[12] = ESBL-positive isolates, Non-ST131 N = 51
[13] = ESBL-positive isolates, ST131 N = 49

Compound	Prevalence of resistance, H30 ST131 [1]	Prevalence of resistance, ST131 [1]	Prevalence of resistance, Total (%) [1] [%]	Prevalence of resistance, Others (%) [1, 4] [%]	Prevalence of resistance, Others (%) [1, 5] [%]	Estimated fraction due to ST131 [1]	Overall prevalence in population, % [1] [%]	Prevalence ratio of resistance [1, 6]	Prevalence ratio of resistance [1, 7]	No. resistant (column %) [2, 8]	No. resistant (column %) [2, 9]	No. of resistant isolates (column %) ([3]; All isolates, N = 299)	Resistance prevalence among H30 ST131 [3] [%]	No. of resistant isolates (column %) ([3]; Other STs, N = 129)	No. of resistant isolates (column %) ([3]; ST9, N = 32)	No. of resistant isolates (column %) ([3]; ST69, N = 15)	No. of resistant isolates (column %) ([3]; ST73, N = 25)	No. of resistant isolates (column %) ([3]; ST127, N = 18)	No. of resistant isolates (column %) ([3]; ST131, N = 80)	Resistance prevalence among non-H30 ST131 [3] [%]	other results
gentamicin	28	29	11	5	3	.76	11	5.4	8.2	12 (7)	2 (1)	29 (10)	30	5 (4)	0	0	0	1 (6)	23 (29)	20	ST131's overall contribution to antimicrobial resistance within the source E. coli population ([1]; back-calculations): 76%; No. resistant (column %) [2, 10]: 10 (45); No. resistant (column %) [2, 11]: 48 (48); No. resistant (column %) [2, 12]: 30 (59); No. resistant (column %) [2, 13]: 18 (37); No. of resistant isolates (column %), H30-Rx (N = 47) [2]: 15 (32) No. (column %); No. of resistant isolates (column %), H30, non-Rx (N = 15) [2]: 8 (53) No. (column %); No. of resistant isolates (column %), H30 (N = 62) [2]: 23 (37) No. (column %); No. of resistant isolates (column %), Non-H30 (N = 9) [2]: 5 (56) No. (column %)
CC(C)(O/N=C(\C(=O)N[C@@H]1C(=O)N2C(C(=O)[O-])=C(C[n+]3ccccc3)CS[C@H]12)c1csc(N)n1)C(=O)O [Ceftazidime]	–	–	–	–	–	–	–	–	–	1 (1)	1 (1)	–	–	–	–	–	–	–	–	–	No. resistant (column %) [2, 10]: 0 (0); No. resistant (column %) [2, 11]: 92 (92); No. resistant (column %) [2, 12]: 47 (92); No. resistant (column %) [2, 13]: 45 (92); No. of resistant isolates (column %), H30-Rx (N = 47) [2]: 40 (85) No. (column %); No. of resistant isolates (column %), H30, non-Rx (N = 15) [2]: 4 (27) No. (column %); No. of resistant isolates (column %), H30 (N = 62) [2]: 44 (71) No. (column %); No. of resistant isolates (column %), Non-H30 (N = 9) [2]: 1 (11) No. (column %)
ampicillin/sulbactam	57	58	34	27	24	.48	34	2.1	2.4	–	–	–	–	–	–	–	–	–	–	–	–
piperacillin/tazobactam	–	–	–	–	–	–	–	–	–	–	–	6 (2)	1	2 (2)	0	0	2 (8)	1 (6)	1 (1)	0	–
O=C1CN(/N=C/c2ccc([N+](=O)[O-])o2)C(=O)N1 [Nitrofurantoin, nitrofurantoin]	8	8	6	5	5	.36	6	3.4	3.2	–	–	8 (3)	3	3 (2)	1 (3)	0	1 (4)	0	3 (4)	13	–
